Patent publication US20160193250A1, “CHORION-DERIVED MSCS CELLS AND CONDITIONED MEDIA AS INDUCER FOR ANGIOGENESIS APPLICATION FOR THE TREATMENT OF CARDIAC DEGENERATION” (CELLS FOR CELLS, priority 2013, published 2016)

Legend:
[1] = test system: genes involved in cardio-myogenesis (NKX2-5, GATA-4, MEF2C, MYH7B, GJA1, TNNT2); assay: Cardio-myogenic induction with 5-azacytidine, relative gene expression by RT-qPCR; format: cell-based, human; settings: all MSC sources treated with 5-aza, 30 days of culture after induction
Excerpt: In order to assess chorion, decidua, gelatin of Wharton, and bone marrow MSCs cardio-myogenic potential, 3000 cells per cm^2 of each one of the MSCs were planted in biologic triplicate (3 different donors) in a plate of 6, leaving 3 bowls for induced condition and other 3 for control condition. This method was developed to obtain cells for assessment through RT-qPCR. However, in order to assess protein expression through indirect immunofluorescence (IFI), cells were planted on a […] circular glass cover placed on a 24-bowl plate, leaving 12 bowls for induced condition and 12 bowls for control condition. […]
The polymerase chain reaction in real time, preceded by reverse transcription (RT-qPCR), was based on quantification kinetics that allowed calculating the messenger RNA through the recording of PCR product forming in real time. This was the quantification, during the reaction exponential stage, of amplified PCR products and labeled with fluorochrome. In this work, a relative quantification of genes of interest was carried out, i.e. a gene of interest expression level is obtained compared to another one that keeps its expression constant and is called standardizing gene; therefore, in this thesis human gene B2M was selected as standardizing. […]

[2] = test system: MSCs; assay: MSC morphology during cardiac induction with 5-aza; format: cell-based, human; settings: MSCs treated with 5-aza
Excerpt: In order to establish morphology changes occurred in MSCs treated with 5-aza, photographs were taken daily for later analysis. […] After 20 days, confluence in both conditions was quite similar and reached 100%. In some dishes, it was common to find a reduced percentage (10%) of cells with vacuoles inside them. On the other hand, it was also noted that a large percentage (approximately 70%) of cells adopted a rounded and flat morphology, while other presented a longish tubular morphology which, in some cases, were multi-core.
For induction, MSCs we incubated with DMEM, 2% FBS, 1% Pen/Strep, 1% L-glutamine, supplemented with 10 μM 5-zacitidine (Sigma, USA) during 24 hours, and kept in a humidified and thermo-regulated incubator at 37° C. and 5% CO2. Later, they were removed from the induction medium, cells were washed three times with PBS 1× adjusted to ph 7.4 (Life Technologies, USA), and cultured in a maintenance medium during 30 days, being renewed every three days. The control condition corresponded to cells submitted to DMEM 2% FBS with no 5-aza during 24 hours, and then cultured in maintenance medium during 30 days.

Nc1ncn([C@@H]2O[C@H](CO)[C@@H](O)[C@H]2O)c(=O)n1 [5-aza, 5-azacytidine]
relative expression of all genes associated to cardio-myogenesis compared to control [1]: significant increase
percentage of cells with rounded and flat morphology [2]: approximately 70%
percentage of cells with vacuoles inside them ([2]; in some dishes): 10%
